Results as given in US8269022B2, “Polymorphs of enantiopure erdosteine” (Edmond Pharma S.R.L, priority 2007, dated 2012).

Legend:
[1] = Dissolution rate test (Intrinsic Dissolution Rate) of 150 mg tablets in 0.1M hydrochloric acid; assay type: physicochemical; settings: FIG. 10
Procedure: A dissolution rate test was performed in order to define the Intrinsic Dissolution Rate of Erdosteine Form I and Racemic Erdosteine. Six thin 150 mg tablets of S-erdosteine Form I and six 150 mg tablets of racemic Erdosteine were prepared by compression with a 10 ton press and their dissolution profile in 0.1M hydrochloric acid was evaluated. The two profiles are reported in FIG. 10, superimposed on the same graph. As can be clearly seen, the dissolution profile of Form I is very different from that of racemic, non-polymorphic Erdosteine. In fact, after 15 minutes more than 80% Form I is dissolved, while more that 25 minutes are necessary to dissolve 40% racemic Erdosteine. The higher solubility of Form I allows to obtain an improved pharmaceutical form in terms of dosage and bioavailability.

[2] = Flowability test (flow through the funnel); assay type: physicochemical; settings: for Flowing time (mean value): flowability comparison, powder
Source text: These advantages will be clearer by considering the following comparison between Form I of S-Erdosteine and the amorphous racemic form. […] Conversely, Form I has a mean flowing time of about 35 seconds, which allows to handle and transfer the powder more easily, and to avoid the use or reduce the amount of glidants in the finished pharmaceutical formulation.

time necessary to dissolve 40% [1] [min]	Flowing time (mean value) [2]	flowability (flow through the funnel) ([2]; result in words)	amount dissolved ([1]; after 15 minutes)	mean flowing time ([2]; powder through the funnel)	Compound
> 25	∞	does not flow through the funnel	–	–	O=C(O)CSCC(=O)NC1CCSC1=O (racemic) [Racemic Erdosteine]
–	35.6″	–	more than 80%	about 35 seconds	O=C(O)CSCC(=O)NC1CCSC1=O (stereo not drawn) [Erdosteine Form I]
